Where no end group is shown, it is not given here.
Experiments:
keratinocytes [1] = assay: Cytokine secretion in keratinocytes stimulated by LPS, TNFα or IL-17 (ELISA); format: cell-based, BALB/C mice; conditions: for cytokine secretion in keratinocytes: stimulated by LPS, TNFα, or IL-17
Description: To determine their effects, keratinocytes were derived from newborn BALB/C mice skin. The cells were incubated for 5 days in 24 wells plate. Cells were then incubated with PBS−/− as control or stimulated by LPS, TNFα, or IL-17. PKCα inhibitors were added as indicated. Medium containing secreted cytokines was collected after 48 hr and analyzed using ELISA. FIG. 40 is a tabular summary of cytokine secretion.
PKCδactivators were also shown to have an anti-inflammatory effect on keratinocytes and splenocytes. Keratinocytes were derived from newborn BALB/C mice skin. The cells were incubated for 5 days in 24 wells plate. Cells were then incubated with PBS−/− as control or stimulated by LPS or TNFα. The PKCδ inhibitor DAP-1 (SEQ ID NO: 16) was added. Medium containing secreted cytokines was collected after 48 hr and analyzed using ELISA. FIG. 35 is a tabular summary showing cytokine secretion in splenocytes stimulated with LPS. […] Cytokine secretion in keratinocytes stimulated by TNFα: following stimulation with 35 ng/ml TNFα. And treatment with 10 μg/ml of DAP-1, the cytokine levels of IL-1α, G-CSF, MIP-2 and KC were reduced by 95%, 70%, 20% and 30# respectively.
PKCε inhibitors were also shown to have an anti-inflammatory effect on keratinocytes. Keratinocytes were derived from newborn BALB/C mice skin. The cells were incubated for 5 days in 24 wells plate. Cells were then incubated with PBS−/− as control or stimulated by LPS or TNFα. The PKCεinhibitors EPIP-1 (SEQ ID NO: 20), EPIP-2 (SEQ ID NO: 21), or EPIP-4 (SEQ ID NO: 23) were added. Medium containing secreted cytokines was collected after 48 hr and analyzed using ELISA. FIGS. 36-39 show the results for secretion of specific cytokines while Table 8 summarizes cytokine secretion for the various PKCε inhibitors: […]

keratinocytes [2] = assay: Keratinocyte proliferation in vitro (PCNA); format: cell-based, Balb/c mice; conditions: concentration not given
Description: Primary murine keratinocytes from 2 days old Balb/c mice were grown for 5 days to reach full confluence in 0.05 mM Ca^2+ MEM medium. HO/02/10 treatment (10^−6M and 10^−5M) was applied 6 hours prior to induction of differentiation. Cells were harvested, run on SDS PAGE gel and immunoblotted using anti-PCNA antibodies. In addition, C57Black mice, 8-10 weeks of age were subjected to full thickness wounding in the upper back area to induce epidermis remodeling and differentiation. Following the wounding, mice were treated daily with HO/02/10 (ranged 40-4000 mg/kg/day) for 7 days. At the termination point, mice were euthanized and upper back skin samples were fixed in 4% paraformaldehyde solution, following paraffin embedding and slide preparation. Skin samples were then subjected to immunohistochemical staining utilizing PCNA antibody. (n=18).
(§1) FIGS. 7 and 8 presents a summary of expression data in keratinocytes utilizing various peptide PKCα inhibitors: MPDY-1 (SEQ ID NO: 21) as well as data for the peptide PKCα inhibitors AIP-1 (SEQ ID NO: 3), AIP-2 (SEQ ID NO: 20), AWOT-1 (SEQ ID NO: 5) and PPDY-1 (SEQ ID NO: 22). […] FIG. 8 presents a summary of expression data in keratinocytes for various peptide PKCα inhibitors.

splenocytes = assay: Cytokine secretion in splenocytes stimulated with LPS or TNFα (ELISA); format: cell-based, B6 mice
Source text: Inhibitory effect on activated splenocytes: Splenocytes were derived from B6 mice. […] Medium containing secreted cytokines was collected after 48 hr and analyzed using ELISA.

keratinocytes [3] = assay: Keratinocyte differentiation markers (Filaggrin, Loricrin, Keratin 1); format: cell-based, C57BL/6J mice; conditions: concentration: EPIP1 and DAP1 1 μg/ml, 10 μg/ml, EPIP2 10 μg/ml
Description: Keratinocytes derived from C57BL/6J mice were incubated in medium containing Ca^2+ to induce keratinocytes differentiation. Cells were then incubated in the presence of […] (1 μg/ml). Cells were harvested, run on SDS PAGE gel and immunoblotted using anti-Filaggrin (Fil), anti Loricrin (Lor) and anti-Keratin 1 (K1) antibody.
as §1

keratinocytes [4] = assay: Keratinocyte migration; format: cell-based; parameters: concentration or dose not given beside the values
[5] = Keratinocytes, Induction: TNFα (35 ng/ml), peptide (10 μg/ml)
[6] = keratinocytes, 35 ng/ml TNFα, 10 μg/ml of DAP-1
[7] = Splenocytes, Induction: LPS (1 μg/ml) (given for DAP1 only), peptide (10 μg/ml)
[8] = LPS 1 [μg/ml], peptide [1 g/ml], 48 hr
[9] = TNF [35 ng/ml], peptide [1 g/ml], 48 hr
[10] = keratinocytes, LPS (1 μg/ml) (EPIP4: printed 1 mg/ml), peptide concentration not given
[11] = keratinocytes, TNFa stim (35 ng/ml), 1 μg/ml of peptide (given for EPIP1, EPIP2, not for EPIP4), reduction printed with or without minus sign
[12] = TNFα 25 ng/ml, peptide 1 μg/ml, 48 hr
[13] = TNFα 25 ng/ml, peptide 10 μg/ml, 48 hr
[14] = LPS 1 [μg/ml], peptide [10 μg/ml], 48 hr
[15] = TNF [35 ng/ml], peptide [10 μg/ml], 48 hr

Sequence: MRAAEAAAAEPM [DAP-1]
- Reduces Chemokines: KC (keratinocytes [1]; [5]): KC (32%), MIP2
- Reduces Chemokines: MIP2 (keratinocytes [1]; [5]): (30%)
- Reduces proinflamatory cytokine: IL-1a (keratinocytes [1]; [5]): (40%)
- Reduces proinflamatory cytokine: IL-6 (keratinocytes [1]; [5]): (20%) and IL-1a
- Reduces systemic cytokine GM-CSF (keratinocytes [1]; [5]): GM-CSF (50%)
- cytokine level of G-CSF reduced by (keratinocytes [1]; [6]): 70%
- cytokine level of IL-1α reduced by (keratinocytes [1]; [6]): 95%
- cytokine level of KC reduced by (keratinocytes [1]; [6]): 30
- cytokine level of MIP-2 reduced by (keratinocytes [1]; [6]): 20%
- inflammatory cytokine secretion in keratinocytes (keratinocytes [1]; stimulated by LPS or TNFα): significantly decease
- Proliferation markers (PCNA) (keratinocytes [2]): Reduces
- Reduces Chemokine: KC (splenocytes; [7]): KC (32%), as
- reduces proinflamatory cytokine: IL-1α (splenocytes; [7]): IL-1α (45%),
- reduces systemic cytokine: G-SCF (splenocytes; [7]): (40%),
- induces antiinflamatory cytokine: IL 10 (splenocytes; Splenocytes, Induction: LPS (1 μg/ml), DAP1 (1 μg/ml)): IL 10 (200%)
- Reduces TNFa expression (splenocytes; Splenocytes, Induction: LPS (1 μg/ml), DAP1 (10 μg/ml)): expression (28%).
- inflammatory cytokine secretion in splenocytes (splenocytes; stimulated with LPS): significantly decease
- Differentiation markers: granular differentiation (keratinocytes [3]): induces
- Migration, Induces (keratinocytes [4]): (200%)

Sequence: LEPEAAAAAAGK [EPIP-4]
- G-CSF secretion (change) (keratinocytes [1]; [8]): −75%
- IL-6 secretion (change) (keratinocytes [1]; [8]): −55%
- IP-10 secretion (change) (keratinocytes [1]; [8]): −60%
- KC secretion (change) (keratinocytes [1]; [8]): −100%
- G-CSF secretion (change) (keratinocytes [1]; [9]): IL-6 (−100%), G-CSF (−100%), IP-10
- IL-6 secretion (change) (keratinocytes [1]; [9]): IL-6 (−100%), G-CSF (−100%), IP-10
- IP-10 secretion (change) (keratinocytes [1]; [9]): (−80%)
- IL-6 secretion (change) (keratinocytes [1]; [10]): Reduces proinflammatory IL-6 (−55%),
- IP-10 secretion (change) (keratinocytes [1]; [10]): −60%
- KC secretion (change) (keratinocytes [1]; [10]): −100%
- Reduces Chemokines IP 10 (keratinocytes [1]; [11]): Chemokines IP 10 (−80%)
- Reduces proinflammatory cytokines IL-6 (keratinocytes [1]; [11]): proinflammatory cytokines IL-6(−100%),
- Proliferation markers (PCNA) (keratinocytes [2]): Induces
- G-CSF (% reduction in secretion) (splenocytes; [12]): 45%
- IFN-γ (% reduction in secretion) (splenocytes; [12]): 25%
- IL-1a (% reduction in secretion) (splenocytes; [12]): 10%
- IL-6 (% reduction in secretion) (splenocytes; [12]): 15%
- IL-10 (% reduction in secretion) (splenocytes; [12]): 30%
- IL-17 (% reduction in secretion) (splenocytes; [12]): 85%
- G-CSF (% reduction in secretion) (splenocytes; [13]): 20%
- IFN-γ (% reduction in secretion) (splenocytes; [13]): 55%
- IL-10 (% reduction in secretion) (splenocytes; [13]): 10%
- IL-17 (% reduction in secretion) (splenocytes; [13]): 90%
- IP-10 (% reduction in secretion) (splenocytes; [13]): 15%
- Differentiation markers: granular differentiation (keratinocytes [3]): No influence
- Differentiation markers: spainous differentiation (keratinocytes [3]): reduces spainous
- Migration, Induces (keratinocytes [4]): (200%)

Sequence: HFEDWIDHFEDWID [DAP-3]
- Reduces Chemokines: KC (keratinocytes [1]; [5]): KC (25%),
- Reduces proinflamatory cytokine: IL-1a (keratinocytes [1]; [5]): (50%)
- Reduces proinflamatory cytokine: IL-6 (keratinocytes [1]; [5]): (45%) and IL-1a
- Reduces systemic cytokine G-SCF (keratinocytes [1]; [5]): SCF (25%),
- Reduces systemic cytokine GM-CSF (keratinocytes [1]; [5]): SCF (25%),
- Proliferation markers (PCNA) (keratinocytes [2]): induces
- Reduces Chemokines: MIP2 (splenocytes; Splenocytes, DAP3 (10 μg/ml)): MIP2 (25%)
- reduces proinflamatory cytokine: IL-1α (splenocytes; [7]): IL-1α (45%),
- reduces systemic cytokine: G-SCF (splenocytes; [7]): G-SCF (25%),
- Differentiation markers: granular differentiation (keratinocytes [3]): induces
- Migration, Induces (keratinocytes [4]): (200%)

Sequence: TLNPQWES [AIP-1]
- cytokine secretion in keratinocytes (keratinocytes [1]; 48 hr): effective in decreasing cytokine secretion

Sequence: FARKGALRQ [AWOT]
- cytokine secretion from LPS and TNFα activated keratinocytes (keratinocytes [1]; FIGS. 19 to 23): decrease
- cytokine secretion from IL-17A activated keratinocytes (keratinocytes [1]; FIGS. 24 to 27): decrease
- cytokine secretion in keratinocytes (keratinocytes [1]; 48 hr): effective in decreasing cytokine secretion

Sequence: EAVSLKPT [EPIP-1]
- G-CSF secretion (change) (keratinocytes [1]; [14]): −70%
- IL-6 secretion (change) (keratinocytes [1]; [14]): −55%
- IP-10 secretion (change) (keratinocytes [1]; [14]): −60%
- KC secretion (change) (keratinocytes [1]; [14]): −100%
- G-CSF secretion (change) (keratinocytes [1]; [15]): −85%
- IL-6 secretion (change) (keratinocytes [1]; [15]): −95%
- IP-10 secretion (change) (keratinocytes [1]; [15]): (−45%)
- G-CSF secretion (change) (keratinocytes [1]; [10]): −70%
- IL-6 secretion (change) (keratinocytes [1]; [10]): −55%
- IP-10 secretion (change) (keratinocytes [1]; [10]): −60%
- KC secretion (change) (keratinocytes [1]; [10]): −100%
- Reduces Chemokines IP 10 (keratinocytes [1]; [11]): Chemokines IP 10 (45%)
- Reduces proinflammatory cytokines IL-6 (keratinocytes [1]; [11]): 95%
- Reduces systemic cytokines G-SCF (keratinocytes [1]; [11]): −85%
- Proliferation markers (PCNA) (keratinocytes [2]): Induces
- Differentiation markers: granular differentiation (keratinocytes [3]): Reduces granular
- Differentiation markers: spainous differentiation (keratinocytes [3]): Reduces granular
- Migration, Induces (keratinocytes [4]): (200%)
